# According to the supplement of paper PMC11208160:
# Test: recombinant barcode read abundance after kanamycin selection (control-corrected) (log10(CPM+1)); higher = more efficient recombination; sequences stand for … in AGTGCAGAGAAAATCGGCCAGTTTTCTCTGCCTGCAGTCCGCATGCCGT…AGATTTATGCAGCGGACTGCCTTTCTCCCAAAGTGATAAACCGGACAGTATCATGGACCGGTTTTCCCGGTAATCCGTATTTGCAAGGTTGGTTTCACT; site = the 11-nt target
# How it was run: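 Recombination efficiency draws on barcodes counted at recombinant junctions in a pooled E. coli screen of targets paired with IS621 bridge RNA target-binding loops. The counts were converted to counts per million, averaged and corrected against the chloramphenicol/ampicillin LB agar control, then reported as log10(CPM+1). Selection plates held chloramphenicol/ampicillin/kanamycin with 0.1 mM IPTG, with two replicates per condition.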
# 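Note: IS621 recombinase and bridge RNA in Escherichia coli cells.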
row,Sequence,recombinant barcode read abundance (log10)
1,CCTCGCACTTGGGTTCTAACCTGTTGCCT (site CATCGCACTAG),0.0533
2,CCTCGCACTTGGGTTCTAACCTGTTGCCT (site CCTCGCACTAG),0.458
3,CCTCGCACTTGGGTTCTAACCTGTTGCCT (site CGTCGCACTAG),0.133
4,CCTCGCACTTGGGTTCTAACCTGTTGCCT (site CTTCGCACTAG),0.0293
5,CCTCGGGCTTGGGTTCTAACCTGTTGCAG (site CATCGGGCTCT),0.0896
6,CCTCGGGCTTGGGTTCTAACCTGTTGCAG (site CCTCGGGCTCT),1.23
7,CCTCGGGCTTGGGTTCTAACCTGTTGCAG (site CGTCGGGCTCT),0.011
8,CCTCGGGCTTGGGTTCTAACCTGTTGCAG (site CTTCGGGCTCT),0.101
9,CCTGACTCTTGGGTTCTAACCTGTTGCAC (site CCTGACTCTGT),2.05
10,CCTGACTCTTGGGTTCTAACCTGTTGCAC (site GAACTGCCTAA),0.0359
11,CCTGACTCTTGGGTTCTAACCTGTTGCAT (site CCTGACTCTAT),2.19
12,CCTGACTCTTGGGTTCTAACCTGTTGCAT (site TAGTGGCCTTA),0.221
13,CCTGAGACTTGGGTTCTAACCTGTTGCAG (site CCTGAGACTCT),1.37
14,CCTGAGACTTGGGTTCTAACCTGTTGCAG (site CCTGGCACTCT),0.297
15,CCTGCGACTTGGGTTCTAACCTGTTGCAC (site AAGCACCCTCA),0.185
16,CCTGCGACTTGGGTTCTAACCTGTTGCAC (site CCTGCGACTGT),0.219
17,CCTGCGGCTTGGGTTCTAACCTGTTGCCT (site CCTGCGACTAG),0.0127
18,CCTGCGGCTTGGGTTCTAACCTGTTGCCT (site CCTGCGGCTAG),0.15
19,CCTGGAACTTGGGTTCTAACCTGTTGCTT (site CCTGGAACTAA),0.418
20,CCTGGAACTTGGGTTCTAACCTGTTGCTT (site CCTGGAGCTAT),0.333
21,CCTGGACCTTGGGTTCTAACCTGTTGCGT (site CCTGGACCTAC),2.06
22,CCTGGACCTTGGGTTCTAACCTGTTGCGT (site CCTGGGCCTAA),0.0265
23,CCTGGAGCTTGGGTTCTAACCTGTTGCAT (site CCTGGAACTAA),0.266
24,CCTGGAGCTTGGGTTCTAACCTGTTGCAT (site CCTGGAGCTAT),0.654
25,CCTGGCACTTGGGTTCTAACCTGTTGCAG (site CCTGAGACTCT),0
26,CCTGGCACTTGGGTTCTAACCTGTTGCAG (site CCTGGCACTCT),1.96

row,Sequence,recombinant barcode read abundance (log10)
1,CCTGGGACTTGGGTTCTAACCTGTTGCTA (site ATGATACCTAT),0.186
2,CCTGGGACTTGGGTTCTAACCTGTTGCTA (site CCTGGGACTTA),2.03
3,CCTGGTCCTTGGGTTCTAACCTGTTGCAT (site CCTGGACCTAA),0.195
4,CCTGGTCCTTGGGTTCTAACCTGTTGCAT (site CCTGGTCCTAT),1.42
5,CCTTAGTCTTGGGTTCTAACCTGTTGCAG (site ACATAGTCTCT),0.169
6,CCTTAGTCTTGGGTTCTAACCTGTTGCAG (site CCTTAGTCTCT),1.15
7,CCTTCCACTTGGGTTCTAACCTGTTGCCT (site ACTTCCACTAG),0.00909
8,CCTTCCACTTGGGTTCTAACCTGTTGCCT (site CCTTCCACTAG),0.285
9,CCTTCCACTTGGGTTCTAACCTGTTGCCT (site GCTTCCACTAG),0.0418
10,CCTTCCACTTGGGTTCTAACCTGTTGCCT (site TCTTCCACTAG),0.0607
11,CCTTCCTCTTGGGTTCTAACCTGTTGCCT (site CATTCCTCTAG),0.018
12,CCTTCCTCTTGGGTTCTAACCTGTTGCCT (site CCTTCCTCTAG),0.599
13,CCTTCCTCTTGGGTTCTAACCTGTTGCCT (site CGTTCCTCTAG),0.0856
14,CCTTCCTCTTGGGTTCTAACCTGTTGCCT (site CTTTCCTCTAG),0
15,CCTTGGACTTGGGTTCTAACCTGTTGCCT (site CCTTGCTCTAG),0.084
16,CCTTGGACTTGGGTTCTAACCTGTTGCCT (site CCTTGGACTAG),0.427
17,CCTTTGTCTTGGGTTCTAACCTGTTGCTT (site CCTTTGACTAA),0.155
18,CCTTTGTCTTGGGTTCTAACCTGTTGCTT (site CCTTTGTCTAA),0.243
19,CGAAAATCTTGGGTTCTAACCTGTTGCCT (site CGAAAATCTAG),0.0664
20,CGAAAATCTTGGGTTCTAACCTGTTGCCT (site CGCAAATCTAG),1.33
21,CGAAAATCTTGGGTTCTAACCTGTTGCCT (site CGGAAATCTAG),0.18
22,CGAAAATCTTGGGTTCTAACCTGTTGCCT (site CGTAAATCTAG),0.128
23,CGAAGCTCTTGGGTTCTAACCTGTTGCCT (site CGAAGCTCTAG),1.44
24,CGAAGCTCTTGGGTTCTAACCTGTTGCCT (site CGCAGCTCTAG),0.211
25,CGAAGCTCTTGGGTTCTAACCTGTTGCCT (site CGGAGCTCTAG),0.108
26,CGAAGCTCTTGGGTTCTAACCTGTTGCCT (site CGTAGCTCTAG),0.223

row,Sequence,recombinant barcode read abundance (log10)
1,CGAATCCCTTGGGTTCTAACCTGTTGCCT (site CGAATCACTAG),0.107
2,CGAATCCCTTGGGTTCTAACCTGTTGCCT (site CGAATCCCTAG),0.809
3,CGAATCCCTTGGGTTCTAACCTGTTGCCT (site CGAATCGCTAG),0.0332
4,CGAATCCCTTGGGTTCTAACCTGTTGCCT (site CGAATCTCTAG),0.117
5,CGACATCCTTGGGTTCTAACCTGTTGCCT (site CGACATCCTAG),0.214
6,CGACATCCTTGGGTTCTAACCTGTTGCCT (site CGAGATCCTAG),0.409
7,CGACCGACTTGGGTTCTAACCTGTTGCAG (site CGACCGACTCT),0.42
8,CGACCGACTTGGGTTCTAACCTGTTGCAG (site CGATCGACTCT),0.158
9,CGACGTACTTGGGTTCTAACCTGTTGCCT (site CGACGTACTAG),0.151
10,CGACGTACTTGGGTTCTAACCTGTTGCCT (site CGCCGTACTAG),0.226
11,CGACGTACTTGGGTTCTAACCTGTTGCCT (site CGGCGTACTAG),0.0649
12,CGACGTACTTGGGTTCTAACCTGTTGCCT (site CGTCGTACTAG),0
13,CGACTGACTTGGGTTCTAACCTGTTGCCT (site CGACTGACTAG),0.229
14,CGACTGACTTGGGTTCTAACCTGTTGCCT (site CGTCTGACTTG),0.0517
15,CGACTGCCTTGGGTTCTAACCTGTTGCGT (site CGAATGTCTAC),0.527
16,CGACTGCCTTGGGTTCTAACCTGTTGCGT (site CGACTGCCTAC),2.09
17,CGAGCAGCTTGGGTTCTAACCTGTTGCCT (site CGAGCAGCTAG),0.395
18,CGAGCAGCTTGGGTTCTAACCTGTTGCCT (site CGCGCAGCTAG),0.152
19,CGAGCAGCTTGGGTTCTAACCTGTTGCCT (site CGGGCAGCTAG),0.519
20,CGAGCAGCTTGGGTTCTAACCTGTTGCCT (site CGTGCAGCTAG),0.0197
21,CGAGGGTCTTGGGTTCTAACCTGTTGCCT (site CGAGGGACTAG),0.0535
22,CGAGGGTCTTGGGTTCTAACCTGTTGCCT (site CGAGGGCCTAG),0.279
23,CGAGGGTCTTGGGTTCTAACCTGTTGCCT (site CGAGGGGCTAG),0.0907
24,CGAGGGTCTTGGGTTCTAACCTGTTGCCT (site CGAGGGTCTAG),1.87
25,CGAGGGTCTTGGGTTCTAACCTGTTGCTT (site AGAGGGTCTAA),0.172
